Where two headings read alike, the source gives them in different places. Marks after values point to notes of the source that are not given here.
Assay: Inhalation exposure: Compound A concentration in lung, plasma and BALF (Example 2)
Type: in vivo, BALB/c mice
Conditions: for concentration at 2 h / concentration at 4 h / concentration at 8 h / concentration at 12 h / concentration at 24 h / concentration at 0.083 h / concentration at 0.25 h / concentration at 0.5 h / concentration at 1 h: male, BALB/c, mouse, lung, inhaled, read-out: Compound A concentration Lung; for concentration at 2 h / concentration at 4 h / concentration at 8 h / concentration at 12 h / concentration at 24 h / concentration at 0.083 h / concentration at 0.25 h / concentration at 0.5 h / concentration at 1 h / Compound A concentration Plasma: mice, 30 min inhalation
Experimental: A series of compositions for pulmonary delivery were prepared by making a 20% suspension of compound A in a 5% tyloxapol solution in water. Particle size reduction was achieved using a colloid mill (magicLAB®, MK module, for 6 hours @ 12,000 rpm, while maintaining a temperature below 50° C.). Samples at 4% w/v compound A were prepared by dilution with DI water.
Low (0.02 mg/L), mid (0.07 mg/L), and high (0.20 mg/L) target aerosol concentrations 0.3% Compound A/0.075% tyloxapol, 0.6% Compound A/0.15% tyloxapol, and 1.5% Compound A/0.375% tyloxapol suspensions were used. These low, mid, and high target formulations were prepared as follows: […]
4% compound A and 1% tyloxapol were removed from refrigeration and approximately 2.25, 4.5, and 12 mL were transferred into clean 50 mL graduated plastic tubes, labeled 0.3% A/0.075% tyloxapol, 0.6% A/0.15% tyloxapol, and 1.5% A/0.375% tyloxapol suspensions and allowed to warm to room temperature. Each was diluted to 20 mL with ultra pure water and vortexed until completely mixed. Each formulation was made the morning of exposure to alleviate any storing/stability issues.
Eighty-seven (87) male BALB/c mice (8 weeks of age on arrival and 18.6-24.6 g on exposure day) were purchased from Charles River Laboratories (Raleigh, N.C.). The three animals with the lowest body weights and the three with the highest body weights were excluded from the study on the day of randomization. The remaining eighty-one (81) animals were assigned to the study. Temperatures and relative humidity (RH) in animal housing areas were within the target range specified in the protocol.
Animals were exposed to one of three concentrations of Compound A aerosols for a target of 30 min.
The actual concentrations of test article in the exposure atmospheres were determined by chemical analysis of timed filter samples collected directly from a nose-only exposure port during exposure. In addition, one impactor sample was obtained to verify particle size distribution (PSD), which is characterized by mass median aerodynamic diameter (MMAD) and geometric standard deviation (GSD). The filters and impactor stages were analyzed chemically by LRRI and are described below.

[1] = nominal aerosol 0.02 mg/L, 12 h
[2] = nominal aerosol 0.02 mg/L, 24 h
[3] = nominal aerosol 0.07 mg/L, 0.083 h
[4] = nominal aerosol 0.07 mg/L, 0.25 h
[5] = nominal aerosol 0.07 mg/L, 0.5 h
[6] = nominal aerosol 0.07 mg/L, 12 h
[7] = nominal aerosol 0.07 mg/L, 24 h
[8] = nominal aerosol 0.2 mg/L, 0.083 h
[9] = nominal aerosol 0.2 mg/L, 0.25 h
[10] = nominal aerosol 0.2 mg/L, 0.5 h
[11] = mouse lung, aerosol conc. 0.02 mg/L
[12] = mouse lung, aerosol conc. 0.07 mg/L
[13] = mouse lung, aerosol conc. 0.2 mg/L

- concentration at 2 h (nominal aerosol 0.02 mg/L, 2 h): 9550 ± 840 ng/g
- concentration at 4 h (nominal aerosol 0.02 mg/L, 4 h): 10500 ± 3250 ng/g
- concentration at 8 h (nominal aerosol 0.02 mg/L, 8 h): 5660 ± 3390 ng/g
- concentration at 12 h [1]: 8670 ± 2310 ng/g
- concentration at 24 h [2]: 3390 ± 2540 ng/g
- concentration at 0.083 h [3]: 20600 ± 10100 ng/g
- concentration at 0.25 h [4]: 16500 ± 2250 ng/g
- concentration at 0.5 h [5]: 16600 ± 600 ng/g
- concentration at 1 h (nominal aerosol 0.07 mg/L, 1 h): 17200 ± 2430 ng/g
- concentration at 2 h (nominal aerosol 0.07 mg/L, 2 h): 22700 ± 5090 ng/g
- concentration at 4 h (nominal aerosol 0.07 mg/L, 4 h): 17000 ± 1620 ng/g
- concentration at 8 h (nominal aerosol 0.07 mg/L, 8 h): 15900 ± 3310 ng/g
- concentration at 12 h [6]: 16800 ± 12500 ng/g
- concentration at 24 h [7]: 10800 ± 660 ng/g
- concentration at 0.083 h [8]: 41000 ± 10300 ng/g
- concentration at 0.25 h [9]: 39200 ± 12300 ng/g
- concentration at 0.5 h [10]: 67200 ± 39100 ng/g
- concentration at 1 h (nominal aerosol 0.2 mg/L, 1 h): 37700 ± 8070 ng/g
- concentration at 2 h (nominal aerosol 0.2 mg/L, 2 h): 49300 ± 15400 ng/g
- concentration at 4 h (nominal aerosol 0.2 mg/L, 4 h): 44600 ± 2400 ng/g
- concentration at 8 h (nominal aerosol 0.2 mg/L, 8 h): 44000 ± 12000 ng/g
- concentration at 12 h (nominal aerosol 0.2 mg/L, 12 h): 40800 ± 6290 ng/g
- concentration at 24 h (nominal aerosol 0.2 mg/L, 24 h): 26800 ± 2630 ng/g
- Compound A concentration Plasma (nominal aerosol 0.02 mg/L, 0.083 h): 2.16 (⅔) ng/mL
- Compound A concentration Plasma (nominal aerosol 0.02 mg/L, 0.25 h): <LLOQ
- Compound A concentration Plasma (nominal aerosol 0.02 mg/L, 0.5 h): 1.98 (⅔) ng/mL
- Compound A concentration Plasma (nominal aerosol 0.02 mg/L, 1 h): 1.19 (⅓) ng/mL
- Compound A concentration Plasma (nominal aerosol 0.02 mg/L, 2 h): <LLOQ
- Compound A concentration Plasma (nominal aerosol 0.02 mg/L, 4 h): <LLOQ
- Compound A concentration Plasma (nominal aerosol 0.02 mg/L, 8 h): <LLOQ
- Compound A concentration Plasma [1]: <LLOQ
- Compound A concentration Plasma [2]: <LLOQ
- Compound A concentration Plasma [3]: 5.43 (⅓) ng/mL
- Compound A concentration Plasma [4]: 1.03 (⅓) ng/mL
- Compound A concentration Plasma [5]: 2.45 (⅓) ng/mL
- Compound A concentration Plasma (nominal aerosol 0.07 mg/L, 1 h): <LLOQ
- Compound A concentration Plasma (nominal aerosol 0.07 mg/L, 2 h): <LLOQ
- Compound A concentration Plasma (nominal aerosol 0.07 mg/L, 4 h): <LLOQ
- Compound A concentration Plasma (nominal aerosol 0.07 mg/L, 8 h): <LLOQ
- Compound A concentration Plasma [6]: 2.05 (⅓) ng/mL
- Compound A concentration Plasma [7]: <LLOQ
- Compound A concentration Plasma [8]: 1.34 (⅔) ng/mL
- Compound A concentration Plasma [9]: 1.43 (⅓) ng/mL
- Compound A concentration Plasma [10]: 1.15 (⅓) ng/mL
- Compound A concentration Plasma (nominal aerosol 0.2 mg/L, 1 h): 1.62 (⅔) ng/mL
- Compound A concentration Plasma (nominal aerosol 0.2 mg/L, 2 h): 1.21 (⅓) ng/mL
- Compound A concentration Plasma (nominal aerosol 0.2 mg/L, 4 h): 1.21 (⅔) ng/mL
- Compound A concentration Plasma (nominal aerosol 0.2 mg/L, 8 h): 2.19 (⅓) ng/mL
- Compound A concentration Plasma (nominal aerosol 0.2 mg/L, 12 h): 2.08 (⅔) ng/mL
- Compound A concentration Plasma (nominal aerosol 0.2 mg/L, 24 h): <LLOQ
- Thalf (mouse BALF, aerosol conc. 0.02 mg/L): 39.8 h
- Thalf (mouse BALF, aerosol conc. 0.07 mg/L): 16.7 h
- Thalf (mouse BALF, aerosol conc. 0.2 mg/L): 17.0 h
- AUC(0-24) [11]: 176 µg·h/g
- AUCinf [11]: 247 µg·h/g
- Thalf (mouse lung, aerosol conc. 0.02 mg/L, Regression Coefficient is less than 0.9): 14.5^# hrs
- AUC(0-24) [12]: 373 µg·h/g
- AUCinf [12]: 757 µg·h/g
- Thalf (mouse lung, aerosol conc. 0.07 mg/L, Regression Coefficient is less than 0.9): 24.6^# hrs
- AUC(0-24) [13]: 938 µg·h/g
- AUCinf [13]: 1777 µg·h/g
- Thalf [13]: 21.7 h
SMILES: Nc1nc(N)c2nc(-c3cccc(O)c3)c(-c3cccc(O)c3)nc2n1 [Compound A, 6,7-bis(3-hydroxyphenyl)-pteridine-2,4-diamine]
